Measured values as given in patent US5652359A, “Oligonucleotides containing n-methyl thiolated bases having antiviral activity” (Epoch Pharmaceuticals, Inc., priority 1993, dated 1997).

Tested on: HIV-1 (strain LAY-1)
Assay: Inhibition of HIV virus replication in human peripheral blood mononuclear (PBM) cells
Type: cell-based
Conditions: Human immunodeficiency virus 1, PBMC, 144 h, supernatant RT activity six days after infection, read-out: IC50, 50% inhibition of replication of HIV
Excerpt: The group R' in Table 1 represents the cholesterol "tail" of Compound 7 which is connected to the 3'-terminal phosphate through a "linking group" derived from 4-hydroxy-2-hydroxymethylpyrrolidine and carbonyl connecting group. […] The IC50 numbers in Table 1 refer to the concentration of the compound which gives 50% inhibition of replication of HIV in a cell culture of human peripheral blood mononuclear (PBM) cells.
Cell Culture. Human PBM cells from healthy HIV-1 seronegative and hepatitis B virus seronegative donors were isolated by Ficoll-Hypaque discontinuous gradient centrifugation at 1,000× g for 30 minutes, washed twice in phosphate-buffered saline (pH 7.2; PBS), and pelleted at 300× g for 10 min. […]
Viruses. […] The virus was propagated in human PBM cells using RPMI 1640 medium, as described previously (McDougal, J. S., Cort, S. P., Kennedy, M. S. Cabridilla, C. D., Feorino, P. M., Francis, D. P., Hicks, D., Kalyanaramen, V. S. and Martin, L. S. (1985): Immunoassay for the detection and quantitation of infectious human retrovirus, lymphadenopathy-associated virus (LAV). J. Immun. Meth. 76:171-183) without PHA or fungizone and supplemented with 26 units/ml of recombinant interleukin-2 (Cetus Corporation, Emeryville, Calif.), 7 μg/ml DEAE-dextran (Pharmacia, Uppsala, Sweden), and 370 U/ml anti-human leukocyte (alpha) interferon (ICN, Lisle, Ill.). […]

`CO[C@@H]1[C@H](O)[C@@H](CO)O[C@H]1n1cnc2c(=S)n(C)cnc21` [Nucleoside, 9(2'-O-methyl-1-β-D-ribofuranosyl)-1-methyl-6-thiopurine] gave an IC50 of ~100 µM.
